According to patent publication US20190117653A1, “SYSTEMS AND METHODS FOR TREATING BACTERIAL INFECTION” (priority 2016, published 2019):
Values after ≈ are worked out from the molar mass of the structure shown.

Tests used:
[1] = 13-week toxicology study in the marmoset, AUC at NOAEL; format: in vivo; details: marmoset females
QTc interval [2] = assay: single-dose ECG study in healthy human volunteers (1.6 and 3.2 mg/kg); format: in vivo; details: 3.2 mg/kg infused over 30 minutes
Method: Based on this, a single-dose ECG-study was conducted in healthy human volunteers, where 1.6 mg/kg and 3.2 mg/kg iclaprim was infused over 30 minutes. […] Maximal increases coincided with Cmax levels and were rapidly reversible. Weight-based dosing with 1.6 mg/kg was thus assessed as acceptable for clinical purposes, whereas weight-based dosing at 3.2 mg/kg was associated with relevant QTc prolongations (>60 msec) and nonspecific T-wave alterations, and was not used for further clinical studies.

QTc interval [3] = details: human, in vivo
Method: A second single-dose ECG study was conducted on healthy human volunteers using weight-based doses of 0.4 mg/kg and 0.8 mg/kg iclaprim base infused over 30 minutes and 1.6 mg/kg infused over 60 minutes.

L-type calcium channel = L-type calcium channel (Homo sapiens, UniProt Q13936); assay: L-type calcium channel inhibition; format: cell-based
[4] = system: methicillin-resistant Staphylococcus aureus (MRSA) isolates nonsusceptible to daptomycin, linezolid or vancomycin; assay: broth microdilution susceptibility of MRSA nonsusceptible to daptomycin, linezolid or vancomycin; format: cell-based
Method: Antibacterial susceptibility testing was conducted on a range of MRSA strains and isolates with varying susceptibilities to several recognized antistaphylococcal antibiotics. Susceptibility testing was performed by broth microdilution in accordance with the Clinical and Laboratory and Standards Institute (CLSI) guidelines. Minimum inhibitory concentrations (MICs) were based on CLSI criteria.

[5] = exposure to iclaprim in Phase I studies; details: human, in vivo
S. aureus strain AH1252 = assay: neutropenic rat lung infection model; format: in vivo, Staphylococcus aureus
Method: S. aureus strain AH1252, a thymidine knockout of the MRSA wild type AW6 strain, was utilized for this study. The bacterial strain was diluted in a 2% alginate buffer, which was added dropwise in a ratio of 1:5 into […] to form alginate beads. The alginate beads reduce the efficacy of bacterial clearance similar to that seen in the cystic fibrosis population. A 5.25×10^4 bacterial inoculum was administered to groups of 9 rats, intratracheally, with prepared alginate bacteria suspensions, under isoflurane anesthesia. […] Twelve hours after the last treatment, rats were euthanized and lungs collected for CFU determination.

[6] = system: nosocomial pneumonia suspected or confirmed to be caused by Gram-positive pathogens; assay: Phase 2 study in nosocomial pneumonia, iclaprim versus vancomycin; format: in vivo, human
Text: This MIC effect of surfactant on daptomycin activity has been reported to be mediated by binding of surfactant components to specific structures present on antibiotics, such as the lipophilic side-chain of daptomycin (Silverman et al., 2005). […] Collectively, the current in vitro study and a previous Phase 2 study support that iclaprim could be a potential treatment for pneumonia, including nosocomial pneumonia caused by susceptible and multidrug resistant Gram-positive bacteria.

[7] = system: common Gram-positive and Gram-negative respiratory bacteria; assay: pulmonary surfactant interaction, overall effect of BPS on MIC and MICRZ; format: cell-based; details: 2.5% (v/v) BPS; all tested strains or isolates
Method: Antibacterial susceptibility testing was measured by JMI Labs (North Liberty, Iowa, USA). […] These clinical isolates were collected from US (n=4), Mexico (n=2), and Italy (n=1). Susceptibility testing was performed by broth microdilution in accordance with the Clinical and Laboratory and Standards Institute (CLSI) guidelines M07-A10 (2015) and the standard operating procedures at JMI laboratories. Minimum inhibitory concentrations (MICS) were based on CLSI criteria (2015). There are no published breakpoints for iclaprim. E. coli, K. pneumoniae, M. catarrhalis, E. faecalis, and S. aureus were tested in cation-adjusted Mueller-Hinton broth (CA-MHB). […]
Because bovine pulmonary surfactant can introduce cloudiness to the MIC testing media, antimicrobial growth inhibition was also evaluated using the colorimetric metabolic indicator resazurin (Camlab Ltd., Cambridge, UK). […] Growth inhibition was then evaluated as a visible color change from blue (no growth) to pink (robust growth) and recorded as a MIC1z value.
The MICs of iclaprim, levofloxacin, and daptomycin were determined against Gram-positive and Gram-negative isolates.
A new vial of bovine pulmonary surfactant (BPS; Survanta®; Abbott Laboratories, Columbus, Ohio) was utilized for each independent experiment. […] MICs of daptomycin were determined in CAMHB with the Ca^2+ content adjusted to 50 mg/L.

[8] = PK of IV iclaprim in moderate hepatic impairment; format: in vivo, human; details: moderate hepatic impairment (Child-Pugh grade B)
Method: For example, the PK profile of 0.8 mg/kg iclaprim administered by IV was investigated in 8 subjects with mild to moderate obesity (body mass index or “BMI” 30-40) and in 8 subjects with severe obesity (BMI>40). […] Linear regression analysis indicated a strong linear relationship between AUC (and Cmax) and BMI. Thus it was clear that the body composition of the subject affected the pharmacokinetics of IV administered iclaprim, with a greater percentage of body fat causing an increase in AUC and Cmax. […] Thus there is a risk of overdosing subjects with moderate hepatic impairment, which can be mitigated by reducing the IV iclaprim dose by about 50%.

[9] = system: isolated rabbit Purkinje fibers
S. aureus = details: worldwide surveillance studies; cited from earlier work

Sequence of L-type calcium channel (Q13936 whole entry): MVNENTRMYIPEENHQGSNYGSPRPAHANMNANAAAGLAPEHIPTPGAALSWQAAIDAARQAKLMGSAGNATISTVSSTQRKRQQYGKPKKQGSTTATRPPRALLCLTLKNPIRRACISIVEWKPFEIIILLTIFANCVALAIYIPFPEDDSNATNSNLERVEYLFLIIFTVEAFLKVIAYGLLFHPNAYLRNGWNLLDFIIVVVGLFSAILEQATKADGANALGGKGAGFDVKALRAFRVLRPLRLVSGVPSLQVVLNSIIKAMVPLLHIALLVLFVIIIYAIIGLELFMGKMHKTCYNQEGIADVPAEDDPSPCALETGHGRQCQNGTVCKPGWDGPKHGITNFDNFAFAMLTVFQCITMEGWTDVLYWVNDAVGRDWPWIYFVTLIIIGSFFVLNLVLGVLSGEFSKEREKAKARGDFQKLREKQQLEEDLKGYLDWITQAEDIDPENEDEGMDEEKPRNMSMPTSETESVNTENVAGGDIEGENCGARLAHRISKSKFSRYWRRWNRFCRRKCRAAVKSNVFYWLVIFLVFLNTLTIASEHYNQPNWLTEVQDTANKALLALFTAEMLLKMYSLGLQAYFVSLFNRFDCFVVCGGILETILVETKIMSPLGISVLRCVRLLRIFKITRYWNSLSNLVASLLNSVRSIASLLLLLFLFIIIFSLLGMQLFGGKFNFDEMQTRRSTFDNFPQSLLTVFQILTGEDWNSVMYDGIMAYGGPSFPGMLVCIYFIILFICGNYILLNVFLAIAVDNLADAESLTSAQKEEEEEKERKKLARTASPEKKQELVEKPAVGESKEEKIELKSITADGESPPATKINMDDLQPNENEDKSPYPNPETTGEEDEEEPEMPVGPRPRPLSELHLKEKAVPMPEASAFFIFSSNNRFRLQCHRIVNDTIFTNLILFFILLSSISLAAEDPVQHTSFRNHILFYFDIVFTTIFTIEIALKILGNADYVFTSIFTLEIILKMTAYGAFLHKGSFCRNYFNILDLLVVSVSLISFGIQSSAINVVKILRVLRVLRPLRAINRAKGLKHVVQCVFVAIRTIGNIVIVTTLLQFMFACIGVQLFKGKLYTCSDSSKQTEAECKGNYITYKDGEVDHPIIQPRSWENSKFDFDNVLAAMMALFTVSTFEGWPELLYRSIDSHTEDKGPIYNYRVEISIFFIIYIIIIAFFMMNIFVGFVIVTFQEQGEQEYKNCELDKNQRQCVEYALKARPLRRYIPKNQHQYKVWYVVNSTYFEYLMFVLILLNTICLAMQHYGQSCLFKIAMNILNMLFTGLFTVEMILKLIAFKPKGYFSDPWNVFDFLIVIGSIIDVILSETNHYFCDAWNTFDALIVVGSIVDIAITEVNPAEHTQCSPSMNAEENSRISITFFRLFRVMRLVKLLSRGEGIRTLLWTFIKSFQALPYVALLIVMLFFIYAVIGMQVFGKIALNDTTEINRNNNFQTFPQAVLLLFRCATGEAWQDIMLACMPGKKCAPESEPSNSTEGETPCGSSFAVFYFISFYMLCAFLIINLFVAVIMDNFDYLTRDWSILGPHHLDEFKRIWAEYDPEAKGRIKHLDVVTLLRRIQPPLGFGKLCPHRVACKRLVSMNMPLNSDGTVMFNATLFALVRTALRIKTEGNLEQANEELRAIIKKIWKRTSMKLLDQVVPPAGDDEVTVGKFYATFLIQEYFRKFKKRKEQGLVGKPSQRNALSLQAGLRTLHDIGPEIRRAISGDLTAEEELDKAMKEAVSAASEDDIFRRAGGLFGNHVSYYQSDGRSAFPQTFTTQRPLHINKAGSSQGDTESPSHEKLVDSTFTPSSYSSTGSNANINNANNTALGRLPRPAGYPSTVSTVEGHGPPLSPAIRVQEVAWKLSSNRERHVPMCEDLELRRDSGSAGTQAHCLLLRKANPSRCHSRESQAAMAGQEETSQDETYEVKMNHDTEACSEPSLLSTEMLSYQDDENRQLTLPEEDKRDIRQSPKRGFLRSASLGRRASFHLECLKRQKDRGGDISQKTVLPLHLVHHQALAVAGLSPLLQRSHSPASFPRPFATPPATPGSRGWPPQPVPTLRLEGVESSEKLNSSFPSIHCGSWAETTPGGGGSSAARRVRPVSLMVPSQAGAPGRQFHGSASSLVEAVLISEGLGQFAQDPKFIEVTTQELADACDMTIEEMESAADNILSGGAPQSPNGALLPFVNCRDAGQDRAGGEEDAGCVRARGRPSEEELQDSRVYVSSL

In the case of `COc1cc(Cc2cnc(N)nc2N)c2c(c1OC)OC(C1CC1)C=C2` (racemic) [Iclaprim], the “AUC achieved at the NOAEL” value [1] is reported as 26,600 hr×ng/mL, the QTc prolongation (QTc interval [2]) is reported as over 60 ms and the “post-infusion QTcF prolongation from baseline (no subject above)” value (QTc interval [3]) is reported as at most 60 ms. For the same molecule, the IC50 (L-type calcium channel) was 46 µM, the “isolates with MIC≤1 μg/ml” value ([4]; MRSA nonsusceptible to daptomycin (5 of 7)) was 71.4% and the “isolates with MIC≤1 μg/ml” value ([4]; MRSA nonsusceptible to linezolid (25 of 25)) was 100%. The “isolates with MIC≤1 μg/ml” value ([4]; MRSA nonsusceptible to vancomycin (18 of 27)) was 66.7%, the AUC ([5]; 1 mg/kg) was 2,575 ± 757 hr × ng/mL and the AUC ([5]; 4 mg/kg) was 8,894 [29.0] hr × ng/mL. The Cmax ([5]; 4 mg/kg) was 2,851 [19.2] ng/mL, the “72 hour lungs log10CFU/Lung (CFU/gram of lung)” value (S. aureus strain AH1252; 80 mg/kg SC/BID) was 3.34 and the “Change in CFUs from 2 hr. infection controls” value (S. aureus strain AH1252; 80 mg/kg SC/BID) was 0.22 log 10 CFU. For the same molecule, the “Change in CFUs from 72 hr. infection controls” value (S. aureus strain AH1252; 80 mg/kg SC/BID) was −5.34 log 10 CFU, the “Survival >60 hrs” value (S. aureus strain AH1252; 80 mg/kg SC/BID (160 mg/kg/day) 3 days) was 9/9 and the “CFU reduction from the 72 hour infection controls” value (S. aureus strain AH1252; iclaprim 80 mg/kg SC/BID) was 5.34 log 10 CFU. The “cure rate, intent-to-treat population” value ([6]; iclaprim 0.8 mg/kg IV q12h, test of cure visit (17 of 23)) was 73.9%, the “cure rate, intent-to-treat population” value ([6]; iclaprim 1.6 mg/kg IV q8h, test of cure visit (15 of 24)) was 62.5% and the “death rate within 28 days of the start of treatment” value ([6]; iclaprim q8h (3 of 24)) was 12.5%. For the same molecule, the “death rate within 28 days of the start of treatment” value ([6]; iclaprim q12h (2 of 23)) was 8.7%, the “effect of BPS on MIC and MICRZ values” [7] was “minimal or no effect” and the “increase in AUC” value [8] was 2.5 fold. For the same molecule, the “increase in Cmax” value [8] was 1.4 fold, the “concentration at which action potential duration was increased” value [9] was “above 1 μM” and the MIC90 (S. aureus) was 0.12 µg/mL (≈ 0.339 µM).
